The test system of data set [1] is MCF-12F cells. Kind of data set: MTT antiproliferative assay, MCF-12F. In kind it is cell-based, human. As to conditions: 72 h, non-tumorigenic cell line, read-out: Mean IC50 ± SD, MCF-12F. As for the experimental part:
(§1) The cell lines BALB 3T3 (mouse embryonic fibroblasts) and MCF-12F (human breast epithelial cells) were used as models for healthy tissue. The MCF-7 and MDA-MB-231 cell lines were used as in vitro models for luminal A- and basal B-type breast cancer, respectively. Cell lines were obtained from the American Type Cultures Collection (ATCC, Manassas, VA, USA). Cells were cultured in Dulbecco modified Eagle’s medium (DMEM) supplemented with 10% fetal bovine serum (FBS), 100 U/mL penicillin, and 0.1 mg/mL streptomycin (Sigma-Aldrich, Schnelldorf, Germany) in an incubator at 37 °C, 5% CO2 and 95% humidity. Plastic flasks 75 cm^2 (Biologix, Lenexa, KS, USA) were used to grow the cells.
(§2) The antiproliferative activity testing was performed on cell cultures using the MTT-dye reduction assay. This assay is based on the metabolism of MTT to insoluble formazan by mitochondrial reductases. The formazan concentration can be determined spectrophotometrically. The measured absorption is an indicator of cell viability. Cell lines (MCF-12F, MCF-7 and MDA-MB-231) were used in the experiments. Cells were plated at a density of 1 × 10^3 cells/100 µL in each well of 96-well microplates and allowed to adhere for 24 h before treatment with test compounds. A concentration range from 4 to 1000 μM was applied for 72 h. The formazan absorption was registered using a microplate reader at λ = 540 nm. Antiproliferative activities were expressed as IC50 values (concentrations required for 50% inhibition of cell growth).
A general note: Formazan colour is commonly taken as a measure of viable cells.

Data set [2] deals with Escherichia coli NBIMCC 8785. Format: cell-based. To be noted: 20 µL per disc, 24 h. As for the experimental part: (§3) The parent peptide Temporin A and the novel analogs were subjected to tests against model strains Escherichia coli NBIMCC 8785, Bacillus subtilis NBIMCC 3562, Arthrobacter oxydans NBIMCC 9333, Pseudomonas aeruginosa NBIMCC 3700, and Candida albicans NBIMCC 74, for the assessment of their antimicrobial activity. The strains were acquired from the National Bank for Industrial Microorganisms and Cell Cultures (NBIMCC, Bulgaria). The strain E. coli 8785 was cultured in Luria-Bertani broth (LB, HiMedia, Mumbai, India); B. subtilis 3562—in nutrient broth (NB, HiMedia, Mumbai, India); A. oxydans 9333; P. aeruginosa 3700—in meat peptone agar (MPA) medium; and C. albicans 74—in yeast mold (YM) medium. An incubator shaker ES-20/60 (Biosan, Latvia) was used for the cultivation and was set to 30 °C for B. subtilis 3562, A. oxydans 9333, and C. albicans 74; and 37 °C for E. coli 8785 and P. aeruginosa 3700, with a 24 h shaking period at 120 rpm. The microbial cultures were then adjusted to a turbidity of 0.5 McFarland using a Grant-bio DEN-1B densitometer (Grant Instruments, Royston, UK) for further use.
(§4) The disk-diffusion method was used as an additional method, with the aim of determining the percent inhibition of the tested samples against the model strains. Sterile plates with LB/NB/MPA/YM agar medium were inoculated on the surface with 100 μL from each microbial culture and incubated at 30 or 37 °C for 30 min, for the suspension to penetrate the agar. After that, sterile paper discs (HiMedia, Mumbai, India) with a diameter of 6 mm were soaked with 20 µL of the peptide solutions with concentrations of 1.4 mg/mL and 10 mg/mL and placed on the agar surface. Sterile paper discs with 10% EtOH/H2O were used as a negative control, and the corresponding strain antibiotic disks (HiMedia, Mumbai, India)—as a positive control. The incubation of the plate was performed at 30/37 °C for 24 h. The antimicrobial activity was analyzed by measuring the diameter of the inhibition zones in mm. The experiments were conducted in triplicates, and the average values for the percent of inhibition as a correlation between the inhibition zone of the peptides over the inhibition zone of the antibiotic multiplied by 100 were calculated.

In data set [3] the test system is Candida albicans NBIMCC 74. In kind it is cell-based. To be noted: 20 µL per disc, 24 h. As for the experimental part:
as §3, §4

The test system of data set [4] is Bacillus subtilis NBIMCC 3562. Format: cell-based. As to conditions: for Inhibition effect, B. subtilis 3562: zone of peptide over zone of antibiotic x 100; for Inhibition zone, B. subtilis 3562: 20 µL per disc, 24 h. As for the experimental part: as §3, §4
The subject of data set [5] is Arthrobacter oxydans NBIMCC 9333. Format: cell-based. To be noted: for Inhibition effect, A. oxydans 9333: zone of peptide over zone of antibiotic x 100; for Inhibition zone, A. oxydans 9333: 20 µL per disc, 24 h. As for the experimental part:
as §3, §4

Data set [6] concerns Pseudomonas aeruginosa NBIMCC 3700. In kind it is cell-based. As to conditions: for Inhibition effect, P. aeruginosa 3700: zone of peptide over zone of antibiotic x 100; for Inhibition zone, P. aeruginosa 3700: 20 µL per disc, 24 h. As for the experimental part: as §3, §4
The test system of data set [7] is MDA-MB-231 cells. Kind of data set: MTT antiproliferative assay, MDA-MB-231. In kind it is cell-based, human. To be noted: for IC50: MTT, 72 h, read-out: Mean IC50 ± SD, MDA-MB-231; for SI (Selectivity Index), MDA-MB-231: SI = IC50 MCF-12F/IC50 tumor cells. As for the experimental part: as §1, §2
Data set [8] concerns MCF-7 cells. Kind of data set: MTT antiproliferative assay, MCF-7. Format: cell-based, human. As to conditions: for IC50: MTT, 72 h, read-out: Mean IC50 ± SD, MCF-7; for SI (Selectivity Index), MCF-7: SI = IC50 MCF-12F/IC50 tumor cells. As for the experimental part: as §1, §2
Data set [9] concerns BALB 3T3 clone A31 cells. The data set can be described thus: 3T3 NRU cytotoxicity/phototoxicity test. In kind it is cell-based, mouse. To be noted: PIF = CC50 −Irr/CC50 +Irr; PIF < 2 = not phototoxic. As for the experimental part:
as §1
(§5) The cytotoxicity/phototoxicity testing was performed as described by the OECD Guidelines for the Testing of Chemicals, Section 4, Test No. 432: In Vitro 3T3 NRU Phototoxicity Test. BALB 3T3, clone A31 cells were grown in 75 cm^2 tissue culture flasks in DMEM high-glucose (4.5 g/L), 10% FBS, and antibiotics at 37.5 °C, in a humidified atmosphere under 5% CO2. Cells were plated at 1 × 10^4 cells / 100 μL culture medium in each well of 96-well microplates and allowed to adhere for 24 h before treatment with test compounds. Peptides were dissolved in DMSO and diluted with culture medium to working concentrations from 4 to 1000 μM. In phototoxicity tests, 96-well plates were irradiated (+Irr) with a dose of 2.4 J/cm^2 using an artificial solar light simulator Helios-iO (SERIC Ltd., Tokyo, Japan), and the cells were incubated for an additional 24 h. After treatment with a Neutral Red medium, washing, and application of the NR Desorb solution, the absorption was measured on a microplate reader at a wavelength of 540 nm. Cytotoxicity/phototoxicity was expressed as CC50 values (concentrations required for 50% cytotoxicity).

A short description of data set [10]: 3T3 NRU cytotoxicity/phototoxicity test. To be noted: mouse; for CC50: cytotoxicity, no irradiation, BALB 3T3 clone A31, Neutral Red uptake, read-out: Mean CC50 ± SD, −Irr; for CC50 at 24 h: phototoxicity, irradiated 2.4 J/cm^2, BALB 3T3 clone A31, Neutral Red uptake, read-out: Mean CC50 ± SD, +Irr. In kind it is cell-based, mouse. The protocol:
as §1, §5

Read-outs that look alike come from different tables or passages of the source. Non-standard residues stand in square brackets, D forms with d. Residues, ends and D or L forms follow the SMILES beside them. Dab = NCC[C@H](N)C(=O)O

For the compound `CC[C@H](C)[C@H](NC(=O)CNC(=O)[C@H](CO)NC(=O)[C@H](CC(C)C)NC(=O)[C@@H](NC(=O)[C@H](CCCCN)NC(=O)CNC(=O)[C@@H](NC(=O)[C@H](CC(C)C)NC(=O)[C@@H]1CCCN1C(=O)[C@H](CC(C)C)NC(=O)[C@@H](N)Cc1ccccc1)[C@@H](C)CC)C(C)C)C(=O)N[C@@H](CC(C)C)C(N)=O` [DTF, FLPLIG-K-VLSGIL-NH2, reference compound] (H-FLPLIGKVLSGIL-NH2), the IC50 in data set [1] is 100 ± 3.3 µM; in data set [7] it was 77 ± 2.92 µM; in data set [8], 49.8 ± 1.9 µM. Also, the “Inhibition zone, E. coli 8785” value in data set [2] (peptide 1.4 mg/mL) and in data set [2] (peptide 10 mg/mL) was 0.0 mm in each case. The “Inhibition zone, C. albicans 74” value in data set [3] (peptide 1.4 mg/mL) and in data set [3] (peptide 10 mg/mL) was 0.0 mm each time. Further, the “Inhibition effect, B. subtilis 3562” value in data set [4] (1.4 mg/mL) is 34.0%; in [4] (10 mg/mL), 50.8%. Moreover, the “Inhibition zone, B. subtilis 3562” value in data set [4] (peptide 1.4 mg/mL) came to 8.5 ± 0.5 mm; in data set [4] (peptide 10 mg/mL), 12.7 ± 0.6 mm. For the same compound, the “Inhibition effect, A. oxydans 9333” value worked out at 33.5% in data set [5] (1.4 mg/mL) and 57.5% in data set [5] (10 mg/mL). The “Inhibition zone, A. oxydans 9333” value was found to be 6.7 ± 0.3 mm in data set [5] (peptide 1.4 mg/mL) and 11.5 ± 0.5 mm in data set [5] (peptide 10 mg/mL). Further, the results for the “Inhibition effect, P. aeruginosa 3700” value in data set [6] (1.4 mg/mL) and in [6] (10 mg/mL) were 43.8% and 64.4%, respectively. Besides, the “Inhibition zone, P. aeruginosa 3700” value in data set [6] (peptide 1.4 mg/mL) is given as 7.0 ± 0.5 mm; in data set [6] (peptide 10 mg/mL) it was 10.3 ± 0.8 mm. Further, the “SI (Selectivity Index), MDA-MB-231” value in data set [7] amounted to 1.30. The “SI (Selectivity Index), MCF-7” value in data set [8] was found to be 2.02. For the same compound, the “PIF (photo irritation factor)” value in [9] came out at 1.05. In data set [10], the CC50 is 92.4 ± 2.82 µM. Further, the CC50 at 24 h in data set [10] turned out to be 88.4 ± 1.48 µM.
As for `CC[C@H](C)[C@H](NC(=O)CNC(=O)[C@H](CO)NC(=O)[C@H](CC(C)C)NC(=O)[C@@H](NC(=O)[C@H](CCN)NC(=O)CNC(=O)[C@@H](NC(=O)[C@H](CC(C)C)NC(=O)[C@@H]1CCCN1C(=O)[C@H](CC(C)C)NC(=O)[C@@H](N)Cc1ccccc1)[C@@H](C)CC)C(C)C)C(=O)N[C@@H](CC(C)C)C(N)=O` [DTDab, FLPLIG-Dab-VLSGIL-NH2] (H-FLPLIG[Dab]VLSGIL-NH2; N-terminus assumed), the IC50 in data set [1] was found to be 280 ± 13.6 µM; in data set [7] it was 174.9 ± 1.35 µM; in data set [8], 157 ± 4.97 µM. Moreover, the “Inhibition zone, E. coli 8785” value in data set [2] (peptide 1.4 mg/mL) and in data set [2] (peptide 10 mg/mL) was 0.0 mm in each case. The “Inhibition zone, C. albicans 74” value in data set [3] (peptide 1.4 mg/mL) and in data set [3] (peptide 10 mg/mL) was 0.0 mm in each case. Further, the “Inhibition effect, B. subtilis 3562” value in [4] (1.4 mg/mL) stood at 0.0%; in [4] (10 mg/mL) it was 45.2%. In addition, the “Inhibition zone, B. subtilis 3562” value in data set [4] (peptide 1.4 mg/mL) came to 0.0 mm; in data set [4] (peptide 10 mg/mL), 11.3 ± 0.6 mm. Moreover, the results for the “Inhibition effect, A. oxydans 9333” value in data set [5] (1.4 mg/mL) and in data set [5] (10 mg/mL) were 43.2% and 76.3%, respectively. In addition, the “Inhibition zone, A. oxydans 9333” value amounted to 8.2 ± 0.3 mm in data set [5] (peptide 1.4 mg/mL) and 14.5 ± 0.5 mm in data set [5] (peptide 10 mg/mL). Also, the “Inhibition effect, P. aeruginosa 3700” value in data set [6] (1.4 mg/mL) was found to be 48.1%; in [6] (10 mg/mL), 89.4%. For the same compound, the “Inhibition zone, P. aeruginosa 3700” value in [6] (peptide 1.4 mg/mL) worked out at 7.7 ± 0.6 mm; in [6] (peptide 10 mg/mL), 14.3 ± 0.6 mm. The “SI (Selectivity Index), MDA-MB-231” value in data set [7] turned out to be 1.60. Besides, the “SI (Selectivity Index), MCF-7” value in [8] was 1.78. In addition, the “PIF (photo irritation factor)” value in [9] is 1.01. The CC50 in data set [10] came out at 210 ± 6.69 µM. In data set [10], the CC50 at 24 h is 207 ± 7.41 µM.

By IC50 is commonly meant the concentration that gives 50% inhibition. A word on the CC50: it is the concentration giving 50% cytotoxicity.

The values are drawn from publication PMC11207040, “Synthesis and Biological Studies of New Temporin A Analogs Containing Unnatural Amino Acids in Position 7” (Pharmaceutics, 2024).
